From ChEMBL document CHEMBL3044788, “α-(Substituted-phenoxyacetoxy)-α-heterocyclylmethylphosphonates: synthesis, herbicidal activity, inhibition on pyruvate dehydrogenase complex (PDHc), and application as postemergent herbicide against broadleaf weeds” (J Agric Food Chem, 2013)

Columns and labels:
Zea mays [1] = assay: Herbicidal activity against Zea mays (maize) assessed as relative growth inhibition at 300 g/ha in greenhouse by postemergence herbicidal activity assay; type: organism-based; conditions: in vivo, other
Polygonum aviculare [2] = assay: Herbicidal activity against Polygonum aviculare assessed as relative growth inhibition at 1200 g/ha in greenhouse by post-emergence herbicidal activity assay; type: functional; conditions: read-out: GI
Beta vulgaris [3] = assay: Herbicidal activity against Beta vulgaris assessed as relative growth inhibition at 450 g/ha in greenhouse by post-emergence herbicidal activity assay; type: functional; conditions: read-out: GI
Chenopodium album [4] = assay: Herbicidal activity against Chenopodium album assessed as relative growth inhibition at 1200 g/ha in greenhouse by post-emergence herbicidal activity assay; type: functional; conditions: read-out: GI
[5] = Toxicity in orally dosed Rattus norvegicus (rat); type: organism-based; conditions: in vivo, po
Amaranthus spinosus [6] = assay: Herbicidal activity against Amaranthus spinosus assessed as relative growth inhibition at 600 g/ha in greenhouse by postemergence herbicidal activity assay; type: functional; conditions: post-emergence, read-out: GI
Amaranthus blitum [7] = assay: Herbicidal activity against Amaranthus blitum assessed as relative growth inhibition at 300 g/ha in greenhouse by post-emergence herbicidal activity assay; type: functional; conditions: read-out: GI
Brassica juncea = assay: Herbicidal activity against two to three-leaf stage Brassica juncea assessed as inhibition of plant growth at 450 g/ha in greenhouse by post-emergence herbicidal activity assay; type: functional; conditions: read-out: GI
Chenopodium album [8] = assay: Herbicidal activity against Chenopodium album assessed as relative growth inhibition at 100 g/ha in greenhouse by post-emergence herbicidal activity assay; type: functional; conditions: read-out: GI
Amaranthus spinosus [9] = assay: Herbicidal activity against Amaranthus spinosus assessed as relative growth inhibition at 300 g/ha in greenhouse by postemergence herbicidal activity assay; type: functional; conditions: post-emergence, read-out: GI
Beta vulgaris [10] = assay: Herbicidal activity against Beta vulgaris assessed as relative growth inhibition at 900 g/ha in greenhouse by post-emergence herbicidal activity assay; type: functional; conditions: read-out: GI
Pisum sativum = assay: Herbicidal activity against 2 to 3 leaf stage Pisum sativum assessed as inhibition of plant growth at 450 g/ha in greenhouse by postemergence herbicidal activity assay; type: functional; conditions: Lathyrus oleraceus, post-emergence; read-out: GI
Chenopodium album [11] = assay: Herbicidal activity against Chenopodium album assessed as relative growth inhibition at 600 g/ha in greenhouse by post-emergence herbicidal activity assay; type: functional; conditions: read-out: GI
Amaranthus spinosus [12] = assay: Herbicidal activity against Amaranthus spinosus assessed as relative growth inhibition at 100 g/ha in greenhouse by postemergence herbicidal activity assay; type: functional; conditions: post-emergence, read-out: GI
[13] = tested on: Brassica rapa subsp. oleifera; assay: Herbicidal activity against Brassica rapa subsp. oleifera assessed as inhibition of rape root growth at 450 g/ha by pre-emergence herbicidal activity assay; type: functional; conditions: read-out: GI
Eclipta prostrata = assay: Herbicidal activity against two to three-leaf stage Eclipta prostrata assessed as inhibition of plant growth at 150 g/ha in greenhouse by post-emergence herbicidal activity assay; type: functional; conditions: read-out: GI
[14] = tested on: Brassica rapa subsp. oleifera; assay: Herbicidal activity against two to three-leaf stage Brassica rapa subsp. oleifera assessed as inhibition of plant growth at 150 g/ha in greenhouse by postemergence herbicidal activity assay; type: functional; conditions: post-emergence, read-out: GI
Oryza sativa [15] = assay: Herbicidal activity against Oryza sativa (rice) assessed as relative growth inhibition at 450 g/ha in greenhouse by postemergence herbicidal activity assay; type: organism-based; conditions: in vivo, other
Polygonum aviculare [16] = assay: Herbicidal activity against Polygonum aviculare assessed as relative growth inhibition at 100 g/ha in greenhouse by post-emergence herbicidal activity assay; type: functional; conditions: read-out: GI
Polygonum aviculare [17] = assay: Herbicidal activity against Polygonum aviculare assessed as relative growth inhibition at 900 g/ha in greenhouse by post-emergence herbicidal activity assay; type: functional; conditions: read-out: GI
Zea mays [18] = assay: Herbicidal activity against Zea mays (maize) assessed as relative growth inhibition at 200 g/ha in greenhouse by postemergence herbicidal activity assay; type: organism-based; conditions: in vivo, other
Amaranthus blitum [19] = assay: Herbicidal activity against Amaranthus blitum assessed as relative growth inhibition at 600 g/ha in greenhouse by post-emergence herbicidal activity assay; type: functional; conditions: read-out: GI
Oryza sativa [20] = assay: Herbicidal activity against Oryza sativa (rice) assessed as relative growth inhibition at 300 g/ha in greenhouse by postemergence herbicidal activity assay; type: organism-based; conditions: in vivo, other
Abutilon theophrasti = assay: Herbicidal activity against two to three-leaf stage Abutilon theophrasti (velvetleaf) assessed as inhibition of plant growth at 150 g/ha in greenhouse by post-emergence herbicidal activity assay; type: functional; conditions: read-out: GI
Oryza sativa [21] = assay: Herbicidal activity against Oryza sativa (rice) assessed as relative growth inhibition at 900 g/ha in greenhouse by postemergence herbicidal activity assay; type: organism-based; conditions: in vivo, other
Amaranthus spinosus [22] = assay: Herbicidal activity against Amaranthus spinosus assessed as relative growth inhibition at 200 g/ha in greenhouse by postemergence herbicidal activity assay; type: functional; conditions: post-emergence, read-out: GI
Amaranthus spinosus [23] = assay: Herbicidal activity against Amaranthus spinosus assessed as relative growth inhibition at 50 g/ha in greenhouse by postemergence herbicidal activity assay; type: functional; conditions: post-emergence, read-out: GI
Amaranthus blitum [24] = assay: Herbicidal activity against Amaranthus blitum assessed as relative growth inhibition at 50 g/ha in greenhouse by post-emergence herbicidal activity assay; type: functional; conditions: read-out: GI
Amaranthus spinosus [25] = assay: Herbicidal activity against Amaranthus spinosus assessed as relative growth inhibition at 900 g/ha in greenhouse by postemergence herbicidal activity assay; type: functional; conditions: post-emergence, read-out: GI
Polygonum aviculare [26] = assay: Herbicidal activity against Polygonum aviculare assessed as relative growth inhibition at 200 g/ha in greenhouse by post-emergence herbicidal activity assay; type: functional; conditions: read-out: GI
Amaranthus blitum [27] = assay: Herbicidal activity against Amaranthus blitum assessed as relative growth inhibition at 200 g/ha in greenhouse by post-emergence herbicidal activity assay; type: functional; conditions: read-out: GI
Polygonum aviculare [28] = assay: Herbicidal activity against Polygonum aviculare assessed as relative growth inhibition at 450 g/ha in greenhouse by post-emergence herbicidal activity assay; type: functional; conditions: read-out: GI
Amaranthus retroflexus = assay: Herbicidal activity against 2 to 3 leaf stage Amaranthus retroflexus assessed as inhibition of plant growth at 150 g/ha in greenhouse by postemergence herbicidal activity assay; type: functional; conditions: post-emergence, read-out: GI

In the case of COP(=O)(OC)C(OC(=O)COc1ccc(Cl)cc1Cl)c1ccco1 (stereo not drawn), the “growth inhibition (GI)” value (Zea mays [1]) is reported as 0%, the inhibition of growth at 1200 g/ha (Polygonum aviculare [2]) is reported as 100% and the inhibition of growth at 450 g/ha (Beta vulgaris [3]) is reported as 100%. The inhibition of growth at 1200 g/ha (Chenopodium album [4]) was 100%, the LD50 [5] was 2700 mg/kg and the inhibition of growth at 600 g/ha (Amaranthus spinosus [6]) was 100%. For the same compound, the inhibition of growth at 300 g/ha (Amaranthus blitum [7]) was 100%, the inhibition of growth at 450 g/ha (Brassica juncea) was 96.5% and the inhibition of growth at 100 g/ha (Chenopodium album [8]) was 90%. It also gave an inhibition of growth at 300 g/ha (Amaranthus spinosus [9]) of 98%, an inhibition of growth at 900 g/ha (Beta vulgaris [10]) of 100% and an inhibition of growth at 450 g/ha (Pisum sativum) of 90%. It also gave an inhibition of growth at 600 g/ha (Chenopodium album [11]) of 100%, an inhibition of growth at 100 g/ha (Amaranthus spinosus [12]) of 90% and an inhibition of growth at 450 g/ha [13] of 94%. For the same compound, the inhibition of growth at 150 g/ha (Eclipta prostrata) was 90%, the inhibition of growth at 150 g/ha [14] was 95% and the “growth inhibition (GI)” value (Oryza sativa [15]) was 0%. For the same compound, the inhibition of growth at 100 g/ha (Polygonum aviculare [16]) was 83%, the inhibition of growth at 900 g/ha (Polygonum aviculare [17]) was 100% and the “growth inhibition (GI)” value (Zea mays [18]) was 0%. For the same compound, the inhibition of growth at 600 g/ha (Amaranthus blitum [19]) was 100%, the “growth inhibition (GI)” value (Oryza sativa [20]) was 0% and the inhibition of growth at 150 g/ha (Abutilon theophrasti) was 95%. For the same compound, the “growth inhibition (GI)” value (Oryza sativa [21]) was 0%, the inhibition of growth at 200 g/ha (Amaranthus spinosus [22]) was 98% and the inhibition of growth at 50 g/ha (Amaranthus spinosus [23]) was 60%. It also gave an inhibition of growth at 50 g/ha (Amaranthus blitum [24]) of 100%, an inhibition of growth at 900 g/ha (Amaranthus spinosus [25]) of 100% and an inhibition of growth at 200 g/ha (Polygonum aviculare [26]) of 85%. It also gave an inhibition of growth at 200 g/ha (Amaranthus blitum [27]) of 100%, an inhibition of growth at 450 g/ha (Polygonum aviculare [28]) of 100% and an inhibition of growth at 150 g/ha (Amaranthus retroflexus) of 95%.
